According to article PMC7377239, “Cardiovascular Effects of Polychlorinated Biphenyls and Their Major Metabolites” (Environmental Health Perspectives, 2020):
Structures can show the parent of a compound that is named as a salt. Where two headings read alike, the source gives them in different places.

Assays:
[1] = tested on: iCell endothelial cells (human iPSC-derived ECs); assay: High-content imaging cytotoxicity in iCell endothelial cells, 24 h; type: cell-based; conditions: Homo sapiens, Endothelial cell, 24 hr; for viability at 0.1 µM / activity at 0.1 µM: 0.10 µM
Procedure, shortened: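 Readouts were vehicle-normalised and fitted to a four-parameter logistic model. POD was set at one SD beyond 0.5% DMSO control means, and 100 µM was assigned when no response was seen. Cells were monolayers of iCell endothelial cells imaged after 24 h compound exposure using nuclear, mitochondrial and calcein dyes.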

[2] = tested on: iCell endothelial cells (human iPSC-derived ECs); assay: Tube formation (tubulogenesis) assay in iCell endothelial cells, 18 h; type: cell-based; conditions: Homo sapiens, Endothelial cell, 18 hr; for activity at 0.1 µM: 0.10 µM
Procedure, shortened: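 Tube formation was measured by calcein AM imaging after overnight compound exposure (37°C, 0.5% DMSO vehicle) of human iPSC-derived ECs, 7,500/well, on reduced-growth-factor Geltrex in starvation medium. Vehicle-normalized data fitted to four-parameter logistic; POD set at one vehicle SD; without response, 100 μM taken as NOAEL.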

[3] = iPSC-EC, 0.00 µM control = 100.00, read-out: endo.cyto.24hr
[4] = iPSC-EC, 0.00 µM control = 100.00, read-out: endo.mito.24hr
[5] = iPSC-EC, 0.00 µM control = 100.00, read-out: endo.mitoint.24hr
[6] = iPSC-EC, 0.00 µM control = 100.00, read-out: endo.nma.24hr
[7] = iPSC-EC, 0.00 µM control = 100.00, read-out: endo.tc.24hrs
[8] = iPSC-EC tube formation, 0.00 µM control = 100.00, read-out: endo.mtl.18hr
[9] = iPSC-EC tube formation, 0.00 µM control = 100.00, read-out: endo.tlps.18hr
[10] = iPSC-EC tube formation, 0.00 µM control = 100.00, read-out: endo.tta.18hr
[11] = iPSC-EC tube formation, 0.00 µM control = 100.00, read-out: endo.ttl.18hr
[12] = endothelial cells (endo), cyto, read-out: POD endo.cyto.24hr
[13] = endothelial cells (endo), mito, read-out: POD endo.mito.24hr
[14] = endothelial cells (endo), mitoint, read-out: POD endo.mitoint.24hr
[15] = endothelial cells (endo), nma, read-out: POD endo.nma.24hr
[16] = endothelial cells (endo), tc, read-out: POD endo.tc.24hr
[17] = endothelial cells (endo), tube formation mtl, read-out: POD endo.mtl.18hr
[18] = endothelial cells (endo), tube formation tlps, read-out: POD endo.tlps.18hr
[19] = endothelial cells (endo), tube formation tta, read-out: POD endo.tta.18hr
[20] = endothelial cells (endo), tube formation ttl, read-out: POD endo.ttl.18hr

O=S(=O)(O)Oc1ccc(-c2ccc(Cl)cc2)cc1 [4'-yl PCB 3 sulfate]
viability at 0.01 µM [1, 3]: 101% | activity at 0.01 µM [1, 4]: 101% | activity at 0.01 µM [1, 5]: 114% | activity at 0.01 µM [1, 6]: 99.9% | viability at 0.01 µM [1, 7]: 101% | viability at 0.1 µM [1, 3]: 101% | activity at 0.1 µM [1, 4]: 101% | activity at 0.1 µM [1, 5]: 103% | activity at 0.1 µM [1, 6]: 99.6% | viability at 0.1 µM [1, 7]: 101% | viability at 1 µM [1, 3]: 101% | activity at 1 µM [1, 4]: 101% | activity at 1 µM [1, 5]: 100% | activity at 1 µM [1, 6]: 98.8% | viability at 1 µM [1, 7]: 101% | viability at 10 µM [1, 3]: 101% | activity at 10 µM [1, 4]: 102% | activity at 10 µM [1, 5]: 98% | activity at 10 µM [1, 6]: 98.8% | viability at 10 µM [1, 7]: 101% | viability at 100 µM [1, 3]: 91.5% | activity at 100 µM [1, 4]: 91.9% | activity at 100 µM [1, 5]: 106% | activity at 100 µM [1, 6]: 104% | viability at 100 µM [1, 7]: 91.5% | minimal effective concentration ([1]; iPSC-EC, top concentration 100.00 µM, read-out: endo.cyto.24hr POD): 100 µM | minimal effective concentration ([1]; iPSC-EC, top concentration 100.00 µM, read-out: endo.mito.24hr POD): 100 µM | minimal effective concentration ([1]; iPSC-EC, top concentration 100.00 µM, read-out: endo.mitoint.24hr POD): 100 µM | minimal effective concentration ([1]; iPSC-EC, top concentration 100.00 µM, read-out: endo.nma.24hr POD): 100 µM | minimal effective concentration ([1]; iPSC-EC, top concentration 100.00 µM, read-out: endo.tc.24hrs POD): 100 µM | activity at 0.01 µM [2, 8]: 99.2% | activity at 0.01 µM [2, 9]: 113% | activity at 0.01 µM [2, 10]: 157% | activity at 0.01 µM [2, 11]: 149% | activity at 0.1 µM [2, 8]: 105% | activity at 0.1 µM [2, 9]: 129% | activity at 0.1 µM [2, 10]: 138% | activity at 0.1 µM [2, 11]: 134% | activity at 1 µM [2, 8]: 98.2% | activity at 1 µM [2, 9]: 137% | activity at 1 µM [2, 10]: 128% | activity at 1 µM [2, 11]: 120% | activity at 10 µM [2, 8]: 74.7% | activity at 10 µM [2, 9]: 85.4% | activity at 10 µM [2, 10]: 81.2% | activity at 10 µM [2, 11]: 76.8% | activity at 100 µM [2, 8]: 60.3% | activity at 100 µM [2, 9]: 28% | activity at 100 µM [2, 10]: 41.8% | activity at 100 µM [2, 11]: 44.3% | minimal effective concentration ([2]; iPSC-EC tube formation, top concentration 100.00 µM, read-out: endo.mtl.18hr POD): 4.33 µM | minimal effective concentration ([2]; iPSC-EC tube formation, top concentration 100.00 µM, read-out: endo.tlps.18hr POD): 11.7 µM | minimal effective concentration ([2]; iPSC-EC tube formation, top concentration 100.00 µM, read-out: endo.tta.18hr POD): 16.8 µM | minimal effective concentration ([2]; iPSC-EC tube formation, top concentration 100.00 µM, read-out: endo.ttl.18hr POD): 11 µM

Oc1cccc(-c2ccc(Cl)cc2)c1 [3'-OH-PCB 3]
minimal effective concentration [1, 12]: 45.8 µM | minimal effective concentration [1, 13]: 45.8 µM | minimal effective concentration [1, 14]: 100 µM | minimal effective concentration [1, 15]: 9.75 µM | minimal effective concentration [1, 16]: 53.2 µM | minimal effective concentration [2, 17]: 0.36 µM | minimal effective concentration [2, 18]: 1.03 µM | minimal effective concentration [2, 19]: 0.49 µM | minimal effective concentration [2, 20]: 0.51 µM

Clc1cc(Cl)c(-c2cc(Cl)c(Cl)cc2Cl)cc1Cl [PCB 153, 2,2′,4,4′,5,5′-hexachlorobiphenyl]
minimal effective concentration [1, 12]: 18.6 µM | minimal effective concentration [1, 13]: 18.6 µM | minimal effective concentration [1, 14]: 0.07 µM | minimal effective concentration [1, 15]: 62.5 µM | minimal effective concentration [1, 16]: 49.2 µM | minimal effective concentration [2, 17]: 0.007 µM | minimal effective concentration [2, 18]: 1.93 µM | minimal effective concentration [2, 19]: 3.83 µM | minimal effective concentration [2, 20]: 0.58 µM
